Reference: patent publication US20050090529A1, “3,5 Disubstituted indazole compounds with nitrogen-bearing 5-membered heterocycles, pharmaceutical compositions, and methods for mediating or inhibiting cell proliferation” (PFIZER INC, priority 2003, published 2005)

Tested on: Cyclin-dependent kinase
Experiment: Cyclin-dependent kinase inhibition, % inhibition at 10 nM (library Examples 99-270)
Assay type: biochemical
Details: 10 nM compound
Outline: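 Radiometric filter assay: kinase transfers ³²P/³³P from 25 μM ATP to a protein substrate in pH 7.4 HEPES buffer with MgCl2, 2% DMSO, 30° C, 20 min. EDTA stop; substrate captured on nitrocellulose or phosphocellulose membrane, washed with phosphoric acid, counted by phosphorimager.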

| Compound | % Inhib @ 10 nM [%] |
| --- | --- |
| CCNCc1cncc(-c2ccc3[nH]nc(-c4ncc(C(=O)N5CCC(n6c(C)nc7cnccc76)CC5)[nH]4)c3c2)c1C [Example 247, ethyl({4-methyl-5-[3-(5-{[4-(2-methyl-1H-imidazol[4,5-c]pyridin-1-yl)piperidin-1-yl]carbonyl}-1H-imidazol-2-yl)-1H-indazol-5-yl]pyridin-3-yl}methyl)amine] | 26 |
| CCNCc1cncc(-c2ccc3[nH]nc(-c4ncc(C(=O)NCc5ccc(OC(F)F)cc5)[nH]4)c3c2)c1C [Example 248, N-[4-(difluoromethoxy)benzyl]-2-(5-{5-[(ethylamino)methyl]-4-methylpyridin-3-yl}-1H-indazol-3-yl)-1H-imidazole-5-carboxamide] | 67 |
| CCNCc1cncc(-c2ccc3[nH]nc(-c4ncc(C(=O)NCC(O)COc5ccccc5)[nH]4)c3c2)c1C (stereo not drawn) [Example 249, 2-(5-{5-[(ethylamino)methyl]-4-methylpyridin-3-yl}-1H-indazol-3-yl)-N-(2-hydroxy-3-phenoxypropyl)-1H-imidazole-5-carboxamide] | 69 |
| CCNCc1cncc(-c2ccc3[nH]nc(-c4ncc(C(=O)N5CCC(c6ccn[nH]6)CC5)[nH]4)c3c2)c1C [Example 250, ethyl({4-methyl-5-[3-(5-{[4-(1H-pyrazol-5-yl)piperidin-1-yl]carbonyl}-H-imidazol-2-yl)-1 H-indazol-5-yl]pyridin-3-yl}methyl)amine] | 62 |
| CCNCc1cncc(-c2ccc3[nH]nc(-c4ncc(C(=O)NCCn5cc(C(=O)NC(C)(C)C)nn5)[nH]4)c3c2)c1C [Example 251] | 27 |
| CCNCc1cncc(-c2ccc3[nH]nc(-c4ncc(C(=O)N5CCC(c6ccnc(NCC)n6)CC5)[nH]4)c3c2)c1C [Example 252, N-ethyl-4-(1-{[2-(5-{5-[(ethylamino)methyl]-4-methylpyridin-3-yl}-1H-indazol-3-yl)-1H-imidazol-5-yl]carbonyl}piperidin-4-yl)pyrimidin-2-amine] | 41 |
| CCNCc1cncc(-c2ccc3[nH]nc(-c4ncc(C(=O)NCCC5CCC(=O)N5Cc5ccccc5)[nH]4)c3c2)c1C (stereo not drawn) [Example 253, N-[2-(1-benzyl-5-oxopyrrolidin-2-yl)ethyl]-2-(5-{5-[(ethylamina)methyl]-4-methylpyridin-3-yl}-1H-indazol-3-yl)-1H-imidazole-5-carboxamide] | 18 |
| CCNCc1cncc(-c2ccc3[nH]nc(-c4ncc(C(=O)N5CCC6(CC5)CC(N5CCCC5)CO6)[nH]4)c3c2)c1C (stereo not drawn) [Example 254, ethyl{[4-methyl-5-(3-{5-[(3-pyrrolidin-1-yl-1-oxa-8-azaspiro[4.5]dec-8-yl)carbonyl]-1H-imidazol-2-yl}-1H-indazol-5-yl)pyridin-3-yl]methyl}amine] | 11 |
| CCNCc1cncc(-c2ccc3[nH]nc(-c4ncc(C(=O)NCc5nnc(-c6ccccc6OC)o5)[nH]4)c3c2)c1C [Example 255, 2-(5-{5-[(ethylamino)methyl]-4-methylpyridin-3-yl}-1H-indazol-3-yl)-N-{[5-(2-methoxyphenyl)-1,3,4-oxadiazol-2-yl]methyl}-1H-imidazole-5-carboxamide] | 40 |
| CCNCc1cncc(-c2ccc3[nH]nc(-c4ncc(C(=O)N5CCC(c6nnc(C7CC7)o6)CC5)[nH]4)c3c2)c1C [Example 256, ({5-[3-(5-[[4-(5-cyclopropyl-1,3,4-oxadiazol-2-yl)piperidin-1-yl]carbonyl}-1H-imidazol-2-yl)-1H-indazol-5-yl]-4-methylpyridin-3-yl}methyl)ethylamine] | 46 |
| CCNCc1cncc(-c2ccc3[nH]nc(-c4ncc(C(=O)N5CCC(c6nnc(CN(C)C)o6)CC5)[nH]4)c3c2)c1C [Example 257] | 37 |
| CCNCc1cncc(-c2ccc3[nH]nc(-c4ncc(C(=O)N(CCC#N)CC5CCCO5)[nH]4)c3c2)c1C (stereo not drawn) [Example 258] | 49 |
| CCNCc1cncc(-c2ccc3[nH]nc(-c4ncc(C(=O)N5CCc6c(C(=O)NC)csc6C5)[nH]4)c3c2)c1C [Example 259, 6-{[2-(5-{5-[(ethylamino)methyl]-4-methylpyridin-3-yl}-1H-indazol-3-yl)-1H-imidazol-5-yl]carbonyl}-N-methyl-4,5,6,7-tetrahydrothieno[2,3-c]pyridine-3-carboxamlde] | 69 |
| CCNCc1cncc(-c2ccc3[nH]nc(-c4ncc(C(=O)N5CCC(Cc6ncccn6)CC5)[nH]4)c3c2)c1C [Example 260, ethyl({4-methyl-5-[3-(5-{[4-(pyrimidin-2-ylmethyl)piperidin-1-yl]carbonyl}-1H-imidazol-2-yl)-1H-indazol-5-yl]pyridin-3-yl}methyl)amine] | 33 |
| CCNCc1cncc(-c2ccc3[nH]nc(-c4ncc(C(=O)N5CCCC(Cc6ncccn6)CC5)[nH]4)c3c2)c1C (stereo not drawn) [Example 261, ethyl({4-methyl-5-[3-(5-{[4-(pyrimidin-2-ylmethyl)azepan-1-yl]carbonyl}-1H-imidazol-2-yl)-1H-indazol-5-yl]pyridin-3-yl}methyl)amine] | 30 |

Second part, the compound after the results:

| % Inhib @ 10 nM [%] | Compound |
| --- | --- |
| 59 | CCNCc1cncc(-c2ccc3[nH]nc(-c4ncc(C(=O)N5CCC(Cc6cccc(CO)c6)CC5)[nH]4)c3c2)c1C [Example 262, (3-[(1-{[2-(5-{5-[(ethylamino)methyl]-4-methylpyridin-3-yl}-1H-indazol-3-yl)-1H-imidazol-5-yl]carbonyl}piperidin-4-yl)methyl]phenyl}methanol] |
| 69 | CCNCc1cncc(-c2ccc3[nH]nc(-c4ncc(C(=O)N5CCC(Cc6ccc(C(N)=O)cc6)CC5)[nH]4)c3c2)c1C [Example 263, 4-[(1-{[2-(5-{5-[(ethylamino)methyl]-4-methylpyridin-3-yl}-1H-indazol-3-y)-1H-imidazol-5-yl]carbonyl}piperidin-4-yl)methyl]benzamide] |
| 29 | CCNCc1cncc(-c2ccc3[nH]nc(-c4ncc(C(=O)NCCc5nnc(-c6cnccn6)o5)[nH]4)c3c2)c1C [Example 264] |
| 29 | CCNCc1cncc(-c2ccc3[nH]nc(-c4ncc(C(=O)N5CCCC(O)(Cn6cccn6)CC5)[nH]4)c3c2)c1C (stereo not drawn) [Example 265, 1-{[2-(5-{5-[(ethylamino)methyl]-4-methylpyridin-3-yl}-1H-indazol-3-yl)-1H-imidazol-5-yl]carbonyl}-4-(1H-pyrazol-1-ylmethyl)azepan-4-ol] |
| 18 | CCNCc1cncc(-c2ccc3[nH]nc(-c4ncc(C(=O)N5CCC(O)(CN6CCOCC6)CC5)[nH]4)c3c2)c1C [Example 266, 1-{[2-(5-{5-[(ethylamino)methyl]-4-methylpyridin-3-yl}-1H-indazol-3-yl)-1H-imidazol-5-yl]carbonyl}-4-(morpholin-4-ylmethyl)piperidin-4-ol] |
| 21 | CCNCc1cncc(-c2ccc3[nH]nc(-c4ncc(C(=O)N5CCCC(O)(CN6CCCC6=O)CC5)[nH]4)c3c2)c1C (stereo not drawn) [Example 267, 1-[(1-{[2-(5-{5-[(ethylamino)methyl]-4-methylpyridin-3-yl}-1H-indazol-3-yl)-1H-imidazol-5-yl]carbonyl}-4-hydroxyazepan-4-yl)methyl]pyrrolidin-2-one] |
| 15 | CCNCc1cncc(-c2ccc3[nH]nc(-c4ncc(C(=O)N5CCCC(O)(CN6CCOCC6)CC5)[nH]4)c3c2)c1C (stereo not drawn) [Example 268] |
| 34 | CCNCc1cncc(-c2ccc3[nH]nc(-c4ncc(C(=O)N5CCCC(COCC6CC6)C5)[nH]4)c3c2)c1C (stereo not drawn) [Example 269, [(5-(3-[5-({3-[(cyclopropylmethoxy)methyl]piperidin-1-yl}carbonyl)-1H-imidazol-2-yl]-1H-indazol-5-yl}-4-methylpyridin-3-yl)methyl]ethylamine] |
| 27 | CCNCc1cncc(-c2ccc3[nH]nc(-c4ncc(C(=O)NCCc5nnc(CC(C)C)o5)[nH]4)c3c2)c1C [Example 270, 2-(5-{5-[(ethylamino)methyl]-4-methylpyridin-3-yl}-1H-indazol-3-yl)-N-[2-(5-isobutyl-1,3,4-oxadiazol-2-yl)ethyl]-1H-imidazole-5-carboxamide] |

Biological target: T1, CDK2/Cyclin A (Homo sapiens, UniProt P24941)
T1 construct: made in house; host or cells: CDK2: insect cells (baculovirus); cyclin A: E. coli
Experiment: Inhibition of CDK2/Cyclin A retinoblastoma kinase activity (apparent Ki)
Assay type: biochemical
Details: read-out: CDK2 Ki
Description: Cyclin-dependent kinase activity was measured by quantifying the enzyme-catalyzed, time-dependent incorporation of radioactive phosphate from [^32P]ATP or [^33P]ATP into a protein substrate. […] Reactions were initiated with enzyme, incubated at 30° C., and terminated after 20 minutes by the addition of ethylenediaminetetraacetic acid (EDTA) to 250 mM. […] Radioactivity was quantified by exposing the dried membranes to a phosphorimager.
Apparent Ki values were measured by assaying enzyme activity in the presence of different inhibitor compound concentrations and subtracting the background radioactivity measured in the absence of enzyme. Inhibition data were fit to an equation for competitive inhibition using Kaleidagraph (Synergy Software), or were fit to an equation for competitive tight-binding inhibition using the software KineTic (BioKin, Ltd.).
A complex of CDK2 and proteolyzed cyclin A was prepared and purified by gel filtration. […] Ki values were measured as described above.

| Compound | Ki [nM] |
| --- | --- |
| CCNCc1cncc(-c2ccc3[nH]nc(-c4nc(-c5ccccc5)c(C(=O)NC)[nH]4)c3c2)c1C [Example 6, 2-[5-(5-Ethylaminomethyl-4-methyl-pyridin-3-yl)-1H-indazol-3-yl]-5-phenyl-3H-imidazole-4-carboxylic acid methylamide] | 50 to 200 |
| CCNCc1cncc(-c2ccc3[nH]nc(-c4nc(-c5ccccc5)c(C(=O)NC5CCCCC5)[nH]4)c3c2)c1C [Example 12, 2-[5-(5-Ethylaminomethyl-4-methyl-pyridin-3-yl)-1H-indazol-3-yl]-5-phenyl-3H-imidazole-4-carboxylic acid cyclohexylamide] | 50 to 200 |
| CCNCc1cncc(-c2ccc3[nH]nc(-c4nc(-c5ccccc5)c(C(=O)NCCN(C)C)[nH]4)c3c2)c1C [Example 16, 2-[5-(5-Ethylaminomethyl-4-methyl-pyridin-3-yl)-1H-indazol-3-yl]-5-phenyl-3H-imidazole-4-carboxylic acid (2-dimethylamino-ethyl)-amide] | > 200 |
